Results reported in patent publication US9512125B2, “Substituted pyrazolo[3.4-D] pyrimidines as anti-inflammatory agents” (THE REGENTS OF THE UNIVERSITY OF CALIFORNIA, priority 2004, dated 2016).
Like-named read-outs stand apart in the source and are kept apart here.

Assays:
monocyte activation = assay: Monocyte activation inhibition in cell-based (BioMAP) assay; design: species or system human; settings: weakly inhibit T cell activation, strongly inhibit monocyte activation, MCP-1 and IL-8 (at least 50%) in a cell-based assay
Protocol: (§1) Human umbilical vein endothelial cells (HUVEC) were cultured as described in Kunkel et al., 2004, FASEB J 18:1279-1281. Peripheral blood mononuclear cells (PBMC) were prepared from buffy coats (Stanford Blood Bank, Stanford, Calif.) by centrifugation over Hisopaque-1077 (Sigma). Four assay systems, 3C, 4H, SAG, and LPS, were used. For the 3C system, HUVEC were cultured for 24 h in microtiter plates (Falcon; BD Biosciences), in the presence of cytokines IL-1β (1 ng/ml), TNF-α (5 ng/ml), and IFN-γ (20 ng/ml). For the 4H system, HUVEC were cultured in the presence of IL-4 (5 ng/ml) and histamine (10 μM). For the SAG system, HUVEC were cultured with PBMC (7.5×10^4) and SAG (20 ng/ml). For the LPS system, HUVEC were cultured with PBMC (7.5×10^4) and LPS (2 ng/ml). Compounds were added 1 h before stimulation and were present during the entire 24-h stimulation period. Cell-based enzyme-linked immunosorbent assay (ELISAs) were carried out as described. (See Kunkel et al., 2004, FASEB J 18:1279-1281.)

[1] = system: HUVEC with or without PBMC (3C, 4H, SAG and LPS systems); assay: BioMAP inflammation model systems (3C, 4H, SAG, LPS), cell-based ELISA profiling; design: species or system human; settings: 4 systems (3C, 4H, SAG, LPS); concentration of 5 micromolar; 24 h stimulation
IFN-gamma signaling = assay: Gamma interferon signaling inhibition in cell-based (BioMAP) assay; design: species or system human; settings: weakly inhibit T cell and monocyte activation (less than 50%) but inhibit IFN-gamma signaling and collagen production
Protocol: In another embodiment, the compounds of the invention are the subset of compounds of Formula (I) that are gamma interferon signaling inhibitors. […] Gamma interferon signaling inhibitors may be especially useful in treating the inflammation underlying multiple diseases including rheumatoid arthritis, systemic sclerosis, COPD, asthma, atherosclerosis, cirrhosis, pulmonary fibrosis, sarcoidosis, keloids, and renal fibrosis.
as §1

T cell activation = T cell activation inhibition in cell-based (BioMAP) assay; design: species or system human
Protocol: T-cell activation inhibitors may be especially useful in treating the inflammation underlying arthritis, psoriasis, vasculitis, multiple sclerosis, IBD, asthma, atherosclerosis, or other inflammatory disease.
as §1

[2] = system: mouse peritoneal inflammation model; assay: Mouse peritoneal inflammation model (thioglycollate); type: in vivo; settings: 10 mg/kg intraperitoneal single dose, thioglycollate stimulus, peritoneal lavage at 4 and 24 hours
Protocol: The following example illustrates the ability of a compound useful in the methods of the present invention to reduce neutrophil and monocyte recruitment, as well as to reduce the total number of leukocytes in a mouse peritoneal inflammation model.
A single dose (10 mg/kg in 200 μl) of an anti-inflammatory pyrazolopyrimidine compound of the present invention (compound 30 in Table 1, above) was administered intraperionteally to a group of 6 mice while another group of 6 mice received an intraperitoneal injection of vehicle only. Fifteen minutes later, an inflammatory stimulus (thioglycollate, 200 μl) was administered intraperitoneally to each mouse. Peritoneal lavage was collected at 4 and 24 hours subsequent to stimulus administration.
Inflammatory infiltrate was recovered by injection of 10 ml of Ca++/Mg++ free PBS, massaging, and withdrawal. Total recovered cells were counted on a hemacytometer. The results are presented in FIG. 2 (average+/−SD of 6 mice).
Neutrophils, monocytes, lymphocytes and eosinophils were enumerated by analyzing smears of the peritoneal wash stained with Wright-Geimsa stain. The results are presented in FIG. 3 (average+/−SD of 6 mice).

[3] = strongly inhibit T cell activation: at least one listed gene product inhibited by at least 50% in a cell-based assay

CC(C)n1nc(Cc2ccccc2Cl)c2c(N)ncnc21 [Compound 62]
monocyte activation inhibitor classification (monocyte activation): monocyte activation inhibitor
Activity [1]: active

CC(C)(C)n1nc(Cc2cccc3ccccc23)c2c(N)ncnc21 [Compound 7]
gamma interferon signaling inhibitor classification (IFN-gamma signaling): interferon gamma signaling inhibitor
Activity [1]: active

CC(C)(C)n1nc(Cc2ccccc2C(F)(F)F)c2c(N)ncnc21 [Compound 65]
monocyte activation inhibitor classification (monocyte activation): monocyte activation inhibitor
Activity [1]: active

CC(C)(C)n1nc(-c2cccc3ccccc23)c2c(N)ncnc21 [Compound 19]
gamma interferon signaling inhibitor classification (IFN-gamma signaling): interferon gamma signaling inhibitor
Activity [1]: active

CC(C)(C)n1nc(-c2ccc(F)c3ccccc23)c2c(N)ncnc21 [Compound 12]
gamma interferon signaling inhibitor classification (IFN-gamma signaling): interferon gamma signaling inhibitor
Activity [1]: active

Cc1ccc(-c2nn(C(C)(C)C)c3ncnc(N)c23)cc1 [Compound 13, PP1, reference compound]
T cell activation inhibitor classification (T cell activation): T cell activation inhibitor

Nc1ncnc2c1c(Cc1ccccc1Cl)nn2C1CCCC1 [Compound 63]
monocyte activation inhibitor classification (monocyte activation): monocyte activation inhibitor
Activity [1]: active

CC(C)(C)n1nc(Cc2ccccc2F)c2c(N)ncnc21 [Compound 64]
monocyte activation inhibitor classification (monocyte activation): monocyte activation inhibitor
Activity [1]: active

CC(C)(C)n1nc(Cc2ccccc2)c2c(N)ncnc21 [Compound 36]
monocyte activation inhibitor classification (monocyte activation): monocyte activation inhibitor
Activity [1]: active

Cn1nc(-c2ccc3ccccc3c2)c2c(N)ncnc21 [Compound 48]
Activity [1]: active
T cell activation inhibitor classification (T cell activation; [3]): T cell activation inhibitor

CC(C)(C)n1nc(-c2ccc3ccccc3c2)c2c(N)ncnc21 [Compound 10]
Activity [1]: active
T cell activation inhibitor classification (T cell activation; [3]): T cell activation inhibitor

CC(C)(C)n1nc(-c2cccc(O)c2)c2c(N)ncnc21 [Compound 41]
Activity [1]: active
T cell activation inhibitor classification (T cell activation; [3]): T cell activation inhibitor

CC(C)(C)Cn1nc(Cc2ccccc2Cl)c2c(N)ncnc21 [Compound 72]
monocyte activation inhibitor classification (monocyte activation): monocyte activation inhibitor
Activity [1]: active

CNc1ncnc2c1c(Cc1ccccc1Cl)nn2C(C)(C)C [Compound 76]
monocyte activation inhibitor classification (monocyte activation): monocyte activation inhibitor
Activity [1]: active

Cc1ccccc1Cc1nn(C(C)(C)C)c2ncnc(N)c12 [Compound 31]
monocyte activation inhibitor classification (monocyte activation): monocyte activation inhibitor
Activity [1]: active

CC(C)(C)n1nc(Cc2ccccc2Br)c2c(N)ncnc21 [Compound 59]
monocyte activation inhibitor classification (monocyte activation): monocyte activation inhibitor
Activity [1]: active

Cc1ccc(-c2nn(C(C)(C)C)c3ncnc(N)c23)c2ccccc12 [Compound 9]
gamma interferon signaling inhibitor classification (IFN-gamma signaling): interferon gamma signaling inhibitor
Activity [1]: active

CC(C)(C)n1nc(Cc2ccccc2Cl)c2c(N)ncnc21 [Compound 30]
monocyte activation inhibitor classification (monocyte activation): monocyte activation inhibitor
monocyte recruitment [2]: reduce
neutrophil recruitment [2]: reduce
total number of leukocytes [2]: reduce
Activity [1]: active

Cc1cc(-c2nn(C(C)(C)C)c3ncnc(N)c23)cc2ccccc12 [Compound 8]
gamma interferon signaling inhibitor classification (IFN-gamma signaling): interferon gamma signaling inhibitor
Activity [1]: active

CC(C)(C)n1nc(-c2ccc3c(c2)OCO3)c2c(N)ncnc21 [Compound 15]
Activity [1]: active
T cell activation inhibitor classification (T cell activation; [3]): T cell activation inhibitor

CC(C)(C)n1nc(-c2cccc(N)c2)c2c(N)ncnc21 [Compound 17]
Activity [1]: active
T cell activation inhibitor classification (T cell activation; [3]): T cell activation inhibitor

CC(C)n1nc(-c2cccc(O)c2)c2c(N)ncnc21 [Compound 54]
Activity [1]: active
T cell activation inhibitor classification (T cell activation; [3]): T cell activation inhibitor

CC(C)(C)n1nc(-c2ccc3c4c(cccc24)CC3)c2c(N)ncnc21 [Compound 11]
gamma interferon signaling inhibitor classification (IFN-gamma signaling): interferon gamma signaling inhibitor
Activity [1]: active
